# Test results published in patent US5266578A, “Heterocyclically substituted quinolylmethoxy-phenylacetamides” (Bayer Aktiengesellschaft, priority 1991, dated 1993).
# Test system: 5-LO
# Assay: lipoxygenase inhibition: release of leukotriene B4 in polymorphonuclear human leukocytes (PMN) after addition of substances and Ca ionophore, reverse phase HPLC
# Format: cell-based
# Conditions: LTB4 release
# Experimental: The pharmacological effects of the substances according to the invention are determined by the following method:
# As a measure of the lipoxygenase inhibition, the release of leukotriene B4 (LTB.) in polymorphonuclear human leukocytes (PMN) was determined by addition of substances and Ca ionophore by means of reverse phase HPLC according to Borgeat, P. et al., Proc. Nat. Acad. Sci, 76, 2148-2152 (1979).
# Table 1 lists by way of example the values obtained by this test for some compounds according to the invention: […]
smiles,measurement,value
"O=C(Nc1ccccn1)C(c1ccc(OCc2ccc3ccccc3n2)cc1)C1CCCCCC1 (stereo not shown) [Example 1, N-(2-Pyridyl)-2-[4-(quinolin-2-yl-methoxy)phenyl]-2-cycloheptyl-acetamide]",IC50,500 nM
"O=C(Nc1nnn[nH]1)C(c1ccc(OCc2ccc3ccccc3n2)cc1)C1CCCCCC1 (stereo not shown) [Example 2, N-(5-Tetrazolyl)-2-[4-(quinoline-2-yl-methoxy)phenyl]-2-cycloheptyl-acetamide]",IC50,260 nM
"O=C(NC1=NCCS1)C(c1ccc(OCc2ccc3ccccc3n2)cc1)C1CCCCCC1 (stereo not shown) [Example 3, N-(2-Thiazolinyl)-2-[4-(quinolin-2-yl-methoxy)phenyl]-2-cycloheptyl-acetamide]",IC50,290 nM
"O=C(Nc1nccs1)C(c1ccc(OCc2ccc3ccccc3n2)cc1)C1CCCCCC1 (stereo not shown) [Example 4, N-(2-Thiazolyl)-2-[4-(quinolin-2-yl-methoxy)phenyl]-2-cycloheptyl-acetamide]",IC50,430 nM
